Experimental data as given in US8613927B2, “High affinity human antibodies to human nerve growth factor” (Regeneron Pharmaceuticals, Inc., priority 2007, dated 2013).

How the values were obtained:
C57BL/6 male mice = experiment: Complete Freund's Adjuvant (CFA) test of inflammatory pain, Hargreaves' test; assay type: in vivo, mouse
Method: Complete Freund's Adjuvant (CFA) test of inflammatory pain. To determine if anti-NGF antibodies could relieve pain in a chronic peripheral inflammatory mouse model, complete Freund's adjuvant (CFA) was injected subcutaneously (s.c.) into the hind paw of C57BL/6 male mice, causing thermal hyperalgesia, which was measured using the Hargreaves' test (Torres et al. (2007) Pain 130:267-278). Control mice received the vehicle (i.e., PBS) only. After acclimating the mice to the Hargreaves' apparatus (model 336, IITC Life Science) for 2-3 hours per day for 3 days, they were tested in the apparatus with an active intensity setting of 17%. A cut-off time of 25 sec was used to avoid tissue damage. For each mouse, 3 readings were obtained during a period of 30 min per day and the median latency was used for analysis. […] The Hargreaves' test was repeated daily for up to 4 days after CFA injection and % decrease from the baseline in paw withdrawal latency calculated (Tables 12 and 13, mean % change±SEM). […] There was no statistical difference between the tested antibodies and the control antibody. Table 12: n=7 for each group; all groups 10 mg/kg.

human NT-3 = target: T1, human NT-3 (Homo sapiens, UniProt P20783); experiment: BIACORE cross-reactivity test, NT-3; assay type: binding; details: NT-3 1.25 nM to 40 nM; purified antibodies
T1 sequence (P20783 139-257): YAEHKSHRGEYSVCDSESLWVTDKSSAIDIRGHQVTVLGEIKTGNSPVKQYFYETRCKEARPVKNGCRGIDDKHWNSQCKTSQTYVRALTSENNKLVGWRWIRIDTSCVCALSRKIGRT
Method: The anti-NGF antibodies were examined for binding cross-reactivity with human NT-3. Briefly, goat anti-human IgG polyclonal antibody was chemically linked to a CM5 chip. Anti-NGF monoclonal antibodies were injected forming a surface of about 50 to 900 RU of immobilized antibody through the interaction with the chip coupled polyclonal antibodies. […] Both association and dissociation phases were monitored and data were analyzed. Results are shown in Table 3 (NB=no binding activity observed).

[1] = system: NT-3 levels in sera of naïve C57BL/6 mice; experiment: Serum NT-3 sandwich ELISA, naive mice; assay type: in vivo, mouse; details: 50 mg/kg s.c.
From the text: The limit of detection (˜40 pg/ml) was defined as two standard deviations (2σ) above background with a minimum of five NT-3 standards to define the response to concentration curve.

[2] = target: T2, NT-3 signaling through TrkC (engineered HEK293 cell line expressing TrkC) (Homo sapiens, UniProt P20783); experiment: HEK293/TrkC SRE-luciferase bioassay of NT-3 signaling; assay type: cell-based; details: 15 pM NT-3; 6 hours; read-out: IC50, inhibition of NT-3-mediated luciferase activity
T2 construct: host or cells: NT-3 added exogenously; partner TrkC made by an engineered HEK293 line
T2 sequence (P20783 139-257): T1 sequence (P20783 139-257)
Method: An engineered HEK293 cell line expressing TrkC was transfected with a SRE-luciferase reporter plasmid. NT-3 drives luciferase expression in a 6-hour assay. […] The engineered HEK293 cell line was seeded onto 96-well plates at 1×10^4 cells/well in serum-free media and incubated overnight at 37° C., 5% CO2. […] The cells were then incubated at 37° C., 5% CO2 for 6 hours. Luciferase activity was determined by adding an equal well volume of BRIGHT GLOW™ (Promega).

[3] = target: T3, NT-3 signaling through p75 and TrkA in PC12 cell line (Homo sapiens, UniProt P20783); experiment: PC12 SRE-luciferase assay with 75 nM NT-3 instead of NGF; assay type: cell-based; details: read-out: IC50, blocking of NT-3 signaling
T3 construct: host or cells: NT-3 added exogenously; receptors endogenous in PC12 cells
T3 sequence (P20783 139-257): T1 sequence (P20783 139-257)
Method: The ability of NGF antibodies to block NGF signaling p75 and TrkA receptor-mediated activity was also measured in vitro using a rat adrenal medulla cell line, PC12, which express both receptors endogenously (Urdiales et al. 1998 J. Neuroscience 18(17):6767-6775). Briefly, PC12 cells were stably transfected with a reporter plasmid containing a serum response element (SRE) linked to a luciferase gene. The transfected cells were resuspended at approximately 2.5×10^5 cells per ml and plated at 50,000 cells per well in a 96-well tissue culture plate in Opti-MEM media overnight. The purified antibody proteins were serially diluted in medium (DMEM plus 0.1% BSA) and added to the plated cells at concentrations ranging from 0 to 100 nM. […] Luciferase activity was measured after incubating the cells for 6 hours at 37° C. in a humidified 7.5% CO2 incubator using BRIGHT GLOW™ luciferase assay system (Promega). Control mAb=RN624.

NGF = NGF (Homo sapiens, UniProt P01138, DEL136-138/DEL208-209); experiment: BIACORE cross-reactivity test, NGF injected at 20 nM; assay type: binding; details: Table 3; NGF 20 nM
Sequence of NGF (P01138 with tags, fused parts or gaps DEL136-138/DEL208-209): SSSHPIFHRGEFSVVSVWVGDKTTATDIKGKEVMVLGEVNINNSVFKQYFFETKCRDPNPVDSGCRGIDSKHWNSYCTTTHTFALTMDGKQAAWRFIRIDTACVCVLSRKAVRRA
Method: The anti-NGF antibodies were examined for binding cross-reactivity with human NT-3. Briefly, goat anti-human IgG polyclonal antibody was chemically linked to a CM5 chip. Anti-NGF monoclonal antibodies were injected forming a surface of about 50 to 900 RU of immobilized antibody through the interaction with the chip coupled polyclonal antibodies. NGF or NT-3 protein at a concentration of 20 nM was injected over the surface, followed by a buffer wash to allow bound ligand to dissociate. Both association and dissociation phases were monitored and data were analyzed. Results are shown in Table 3 (NB=no binding activity observed).

[4] = system: circulating levels of neurotrophin-3 (NT-3); experiment: Serum NT-3 sandwich ELISA, mice of post incision pain model; assay type: in vivo, mouse; details: day 4, 25 mg/kg i.p., mean±std dev, limit of detection ~40 pg/ml
From the text: On day 4, after the behavioral tests from post incision pain model were completed, the mice's sera were collected and analyzed for circulating levels of neurotrophin-3 (NT-3) using a sandwich ELISA. The limit of detection (˜40 pg/ml) was defined as two standard deviations (2σ) above background with a minimum of five NT-3 standards to define the response to concentration curve.

[5] = system: transgenic mice of which the endogenous mouse NGF locus was replaced with the human NGF gene; experiment: Seltzer neuropathic pain model in mice with human NGF gene, Hargreaves' test; assay type: in vivo; details: 50 mg/kg s.c. at day 8 post-surgery; p<0.05
Method: These mice were used in a Seltzer neuropathic pain model to test REGN268 and control mAbs. Following the Seltzer surgery, these mice were tested at day 4 and at day 8 post-surgery to confirm that the thermal hyperalgesia had developed.

Row | Substance | % decrease from the baseline in paw withdrawal latency (C57BL/6 male mice; Table 12, 10 mg/kg s.c. 1 hr before CFA, Baseline, mean±SEM) | % decrease from the baseline in paw withdrawal latency (C57BL/6 male mice; Table 12, 10 mg/kg s.c., Day 1 after CFA) | % decrease from the baseline in paw withdrawal latency (C57BL/6 male mice; Table 12, 10 mg/kg s.c., Day 2 after CFA) | % decrease from the baseline in paw withdrawal latency (C57BL/6 male mice; Table 12, 10 mg/kg s.c., Day 3 after CFA) | % decrease from the baseline in paw withdrawal latency (C57BL/6 male mice; Table 13, 10 mg/kg s.c., Baseline) | % decrease from the baseline in paw withdrawal latency (C57BL/6 male mice; Table 13, 10 mg/kg s.c., Day 1 after CFA) | % decrease from the baseline in paw withdrawal latency (C57BL/6 male mice; Table 13, 10 mg/kg s.c., Day 2 after CFA) | % decrease from the baseline in paw withdrawal latency (C57BL/6 male mice; Table 13, 10 mg/kg s.c., Day 3 after CFA) | % decrease from the baseline in paw withdrawal latency (C57BL/6 male mice; Table 13, 10 mg/kg s.c., Day 4 after CFA) | Kd (human NT-3) | Serum NT-3 ([1]; Day 1, limit of detection ~40 pg/ml) | Serum NT-3 ([1]; Day 7) | Serum NT-3 ([1]; Day 14) | NT-3 levels ([1]; over 1, 7 and 14 days post treatment) | IC50 [2] | IC50 [3] | Kd (NGF) | Serum NT-3 [4] | relief of neuropathic pain in humanized NGF mice [5]
1 | tanezumab [RN624] | 0.0 ± 0.0% | −58.3 ± 5.5% | −30.9 ± 5.2% | −20.7 ± 6.3% | 0.0 ± 0.0% | −61.7 ± 9.7% | −33.1 ± 17.9% | −9.6 ± 15.4% | −0.4 ± 18.5% | 1.1 nM | 131 ± 41 pg/mL | 199 ± 15 pg/mL | 196 ± 35 pg/mL | 131 to 199 pg/mL | 150 to 200 nM | ~105 nM | 0.0013 nM | 172 ± 114 pg/mL | 
2 | IgG1 Control: negative binding control, IgG1 control (AVASTIN®; Genentech, CA) |  |  |  |  |  |  |  |  |  |  |  |  |  |  |  |  |  |  | had no effect
